Test results taken from US9205073B2, “Method for treating virus infection using derivative of aniline” (CHINA MEDICAL UNIVERSITY, priority 2014, dated 2015).

Tests used:
[1] = tested on: JEV T1P1; assay: Viral plaque test, JEV T1P1 replication in BHK-21 cells; assay type: cell-based, Japanese encephalitis virus; settings: treated for 48 or 72 hours
Description: BHK-21 cells and/or TE671cells were separately cultured in a 24-well culture plate, with an initial density of 3×10^4 per well, and with 1 ml of 2% FBS-containing MEM medium per well. The cells were incubated in an incubator (37° C., 5% CO2) overnight, and the medium was removed until the cells adhered to the plate. Then, fresh 2% FBS-containing MEM medium was simultaneously added into each well of the culture plate. The cells were infected with a JEV T1P1 virus strain, wherein the amount of JEV T1P1 used to infect BHK-21 cells was a multiplicity of infection (M.O.I.)=0.1, and the amount of JEV T1P1 used to infect TE671 cells was M.O.I.=0.05. Different concentrations of compound 1 (final concentrations were 0, 2.5, 25 and 125 μM, respectively) were added into different wells. The culture plate was placed into an incubator (37° C., 5% CO2) and maintained therein. […]
BHK-21 cells were cultured in a 6-well culture plate at an initial density of 3×10^5 per well with 2 ml of 2% FBS-containing MEM medium per well. […] The cells were washed with clear water, and then the viral plaques were counted to calculate the virus titer.

[2] = tested on: EV71; assay: Enterovirus replication, plaque test in RD cells; assay type: cell-based, enterovirus type 71; settings: Enterovirus A, 36 h, read-out: inhibitory rate of EV 71 replication
Description: The RD cells were cultured in a 24-well culture plate with an initial density of 3×10^4 per well, as well as with 1 ml of 2% FBS-containing MEM medium per well. The cells were incubated in an incubator (37° C., 5% CO2) overnight. The medium was removed, and then, 1 ml of fresh 2% FBS-containing MEM medium was simultaneously added into each well. The RD cells were infected with an EV71 virus strain (M.O.I.=0.1). Different concentrations of compound 1 (final concentrations were 0, 2.5, 25 and 125 μM) were added into different wells respectively. RD cells were incubated in an incubator (37° C., 5% CO2) for 36 hours, and then the viral medium was collected for the following plaque test.
The RD cells were cultured in a 6-well culture plate, and incubated in an incubator (37° C., 5% CO2) overnight. The medium was removed, and then 200 μl of the above 10^4 times diluted viral medium was added into each well. The cells were infected for 1 hour. Then, 3 ml of a 3% agarose covering solution was added into each well. The cells were incubated in an incubator (37° C., 5% CO2) for 3 days. The covering solution was removed. Methyl blue was added into each well, and the plate was placed at room temperature overnight, and then washed with clear water, and dried. The number of plaques was counted to calculate the virus titer and inhibitory rate.

[3] = tested on: DEN2; assay: Dengue virus replication, DEN2 NS1 antigen-capture ELISA in Huh7 cells; assay type: cell-based, dengue virus type 2; settings: M.O.I.=5, 48 hours, compound 10 μM
Description: Huh7 cells were cultured in a 24-well culture plate with an initial density of 3×10^4 per well, and with 1 ml of 2% FBS-containing MEM medium per well. The cells were incubated in an incubator (37° C., 5% CO2) overnight. The medium was removed until the cells adhered to the plate. Then, 1 ml of fresh 2% FBS-containing MEM medium was simultaneously added into each well of the culture plate. The cells were infected with DEN2 virus strain (M.O.I.=5). Different concentrations of compound 1 (the final concentrations were 0, 10, 50, 100 and 150 μM, respectively) were added into different wells. The culture plate was placed into an incubator (37° C., 5% CO2) and maintained for 48 hours. The supernatant of viral medium was collected.
The above obtained supernatant was analyzed by an antigen-capture enzyme-linked immunosorbent assay (ELASA) to quantitate the DEN2 NSI protein level in the viral medium. First, a NS1 antibody was added into each well of a 96-well micro-reaction plate (200 μl/well) and the reaction was maintained at 4° C. overnight. Each well was washed with PBST 3 times (200 μl/time). A 1% BSA-containing blocking buffer (300 μl) was added into each well. […] The reading value of DEN NS1 protein amount in each supernatant was determined by examining the absorbances at a wavelength of 450 nm to evaluate DEN2 replication.

For CCOC(=O)C1=C(Nc2cc(C)cc(C)c2)OCC1=O [Compound 1, ethyl 2-(3′,5′-dimethylanilino)-4-oxo-4,5-dihydrofuran-3-carboxylate], the “replication of JEV T1P1 (virus titer)” value [1] was “significantly decreased”, the inhibition at 2.5 µM [2] was 4.6% and the inhibition at 25 µM [2] was 23%. The inhibition at 125 µM [2] was 24.6% and the “level of DEN2 NS1 protein” value [3] was “reduced”.
